Measurements published in patent publication US9120756B2, “Substituted phenylureas and phenylamides as vanilloid receptor ligands” (Gruenenthal GmbH, priority 2009, dated 2015).

Legend:
mice = test: Formalin test carried out on mice (FTm); assay type: in vivo; conditions: 1 po, percentage change relative to control
Protocol: In the formalin test, the testing to determine the antinociceptive effect of the compounds according to the invention is carried out on male mice (NMRI, 20 to 30 g body weight, Iffa, Credo, Belgium).
In the formalin test as described by D. Dubuisson et al., Pain 1977, 4, 161-174, a distinction is drawn between the first (early) phase (0 to 15 minutes after the injection of formalin) and the second (late) phase (15 to 60 minutes after the injection of formalin). The early phase, as an immediate reaction to the injection of formalin, is a model of acute pain, whereas the late phase is regarded as a model of persistent (chronic) pain (T. J. Coderre et al., Pain 1993, 52, 259-285). The corresponding descriptions in the literature are introduced herewith by way of reference and form part of the disclosure.
The compounds according to the invention are tested in the second phase of the formalin test to obtain information about the effects of substances on chronic/inflammatory pain. […]
Subsequently, the nociceptive behaviour is continuously detected by observing the animals over a test period of three minutes in the second (late) phase of the formalin test (21 to 24 minutes after the injection of formalin). The pain behaviour is quantified by adding up the seconds over which the animals display licking and biting of the paw in question during the test period. […]

hVR1 = hVR1 (Homo sapiens (Human), UniProt Q8NER1); test: FLIPR Ca2+ influx assay on CHO K1 cells transfected with the VR1 gene, capsaicin stimulus (method II); assay type: cell-based; conditions: capsaicin (Cap), read-out: Ki (human being) [nM] Cap
Chain of hVR1 (Q8NER1 whole entry): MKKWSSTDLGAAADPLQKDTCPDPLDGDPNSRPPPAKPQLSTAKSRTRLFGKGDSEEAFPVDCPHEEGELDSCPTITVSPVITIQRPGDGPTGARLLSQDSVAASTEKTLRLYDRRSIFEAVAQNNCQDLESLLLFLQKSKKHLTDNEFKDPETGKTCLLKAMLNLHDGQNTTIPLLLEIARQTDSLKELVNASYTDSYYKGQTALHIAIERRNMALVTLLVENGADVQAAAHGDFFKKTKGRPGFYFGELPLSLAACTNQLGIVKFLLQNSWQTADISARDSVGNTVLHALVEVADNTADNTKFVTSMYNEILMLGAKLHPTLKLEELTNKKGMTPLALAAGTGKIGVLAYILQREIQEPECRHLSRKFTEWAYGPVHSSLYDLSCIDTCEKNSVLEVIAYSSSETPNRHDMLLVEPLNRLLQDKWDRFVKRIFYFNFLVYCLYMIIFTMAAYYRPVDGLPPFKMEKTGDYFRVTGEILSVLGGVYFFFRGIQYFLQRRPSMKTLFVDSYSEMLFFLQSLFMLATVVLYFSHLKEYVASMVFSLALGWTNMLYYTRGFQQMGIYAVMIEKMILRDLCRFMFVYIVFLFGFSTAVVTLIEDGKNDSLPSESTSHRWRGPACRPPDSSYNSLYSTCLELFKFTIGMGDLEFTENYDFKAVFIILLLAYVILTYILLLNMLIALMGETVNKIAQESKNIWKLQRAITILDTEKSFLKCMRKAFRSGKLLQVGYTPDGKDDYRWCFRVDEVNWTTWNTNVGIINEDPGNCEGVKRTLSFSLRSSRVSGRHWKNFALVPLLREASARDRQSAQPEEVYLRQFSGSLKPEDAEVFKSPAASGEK

- Ki (hVR1): 51.8 nM
Structure (SMILES): O=C(Cc1cccc(F)c1)NCc1cc(C(F)(F)F)nn1-c1cccc(Cl)c1 [Example 74, N-((1-(3-chlorophenyl)-3-(trifluoromethyl)-1H-pyrazol-5-yl)methyl)-2-(3-fluorophenyl)acetamide]
- FTm (mice): 13%
